# Read-outs that look alike come from different tables or passages of the source.
# Assays:
# [1] = biological target: T1, Bfl-1 (Homo sapiens, UniProt Q16548); assay: Peptide SPOT array binding
# T1 construct: myc- Bfl-1 SPOT array & FP; made in house
# T1 sequence (Q16548 with tags, fused parts or gaps): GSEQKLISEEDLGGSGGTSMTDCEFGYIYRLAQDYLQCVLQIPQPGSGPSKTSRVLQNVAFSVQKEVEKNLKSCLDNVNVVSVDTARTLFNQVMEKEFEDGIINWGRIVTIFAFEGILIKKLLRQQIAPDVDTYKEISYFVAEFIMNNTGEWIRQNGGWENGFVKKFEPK
# Procedure: (§1) Peptide SPOT arrays were synthesized using F-moc chemistry on nitrocellulose membranes at the MIT Biopolymers facility using an Intavis AutoSpot robot. Peptide spots were cut from the membrane, hydrated in 100% methanol, transferred to TBS (50 mM Tris, pH 8.1, 100 mM NaCl, 0.01% Triton X-100) with 1% bovine serum albumin (BSA), here called blocking buffer, and incubated at room temperature for ∼10 minutes. Membranes were then incubated with 10 ml of 1 µM or 100 nM c-Myc-tagged receptor (sequences in Table S6) in TBS for 1 h at room temperature. Membranes were then rinsed 3× with blocking buffer and then incubated with anti-c-myc-Cy3 antibody (Sigma Aldrich C6594) diluted 100-fold in blocking buffer for 1 hour at room temperature. Membranes were rinsed 3× with blocking buffer and scanned on a Typhoon 9400 (GE Healthcare). Images were analyzed with ImageQuant (GE Healthcare), and Cy3 intensity at 580 nm was averaged over a circular area that was equal in size for all spots for a given membrane. Typically, 5–10 known binders and their negative controls were included.
# [2] = biological target: T2, Mcl-1 (Homo sapiens, UniProt Q07820); assay: Peptide SPOT array binding
# T2 construct: myc-Mcl-1 SPOT array & FP; made in house
# T2 sequence (Q07820 with tags, fused parts or gaps): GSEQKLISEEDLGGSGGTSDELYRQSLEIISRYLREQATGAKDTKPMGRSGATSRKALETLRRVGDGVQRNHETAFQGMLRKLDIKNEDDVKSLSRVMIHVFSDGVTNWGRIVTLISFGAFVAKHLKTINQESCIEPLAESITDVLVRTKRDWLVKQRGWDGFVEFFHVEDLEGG
# Procedure: as §1
# [3] = biological target: T3, Bcl-2 (Homo sapiens, UniProt P10415, DEL53-91); assay: Peptide SPOT array binding; settings: c-Myc-tagged receptor 1 µM or 100 nM, anti-c-myc-Cy3 read-out
# T3 construct: myc- Bcl-2 FP; made in house
# T3 sequence (P10415 with tags, fused parts or gaps DEL53-91): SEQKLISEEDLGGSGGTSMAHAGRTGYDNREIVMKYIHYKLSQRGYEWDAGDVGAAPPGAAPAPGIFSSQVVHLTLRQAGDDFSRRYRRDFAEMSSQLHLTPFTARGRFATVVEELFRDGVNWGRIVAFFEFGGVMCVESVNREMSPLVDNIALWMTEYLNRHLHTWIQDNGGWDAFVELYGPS
# Procedure: as §1
# [4] = biological target: T4, Bcl-w (Homo sapiens, UniProt Q92843, Q133R); assay: Peptide SPOT array binding; settings: c-Myc-tagged receptor 1 µM or 100 nM, anti-c-myc-Cy3 read-out
# T4 construct: myc-Bcl-w SPOT array & FP; made in house
# T4 sequence (Q92843 with tags, fused parts or gaps Q133R): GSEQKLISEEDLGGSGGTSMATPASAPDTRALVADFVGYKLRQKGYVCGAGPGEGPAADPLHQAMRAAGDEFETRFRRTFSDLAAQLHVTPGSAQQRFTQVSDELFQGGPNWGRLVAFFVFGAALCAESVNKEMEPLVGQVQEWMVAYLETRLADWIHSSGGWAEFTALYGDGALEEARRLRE
# Procedure: as §1
# [5] = biological target: T5, Bcl-xL (Homo sapiens, UniProt Q07817); assay: Peptide SPOT array binding; settings: c-Myc-tagged receptor 1 µM or 100 nM, anti-c-myc-Cy3 read-out
# T5 construct: myc-Bcl-xL SPOT array & FP; made in house
# T5 sequence (Q07817 with tags, fused parts or gaps): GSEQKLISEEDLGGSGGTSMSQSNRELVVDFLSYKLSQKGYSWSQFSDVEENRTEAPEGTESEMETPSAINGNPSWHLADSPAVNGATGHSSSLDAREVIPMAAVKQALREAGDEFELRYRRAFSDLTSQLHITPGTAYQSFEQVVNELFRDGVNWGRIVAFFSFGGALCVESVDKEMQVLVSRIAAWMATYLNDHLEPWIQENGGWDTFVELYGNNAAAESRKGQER
# Procedure: as §1
# [6] = biological target: T3, Bcl-2; settings: natural BH3 peptides, interactions taken from literature; read-out: Binder class, Bcl-2; cited from earlier work
# [7] = biological target: T5, Bcl-xL; settings: cited from earlier work
# [8] = biological target: T2, Mcl-1; settings: read-out: Binder class, Mcl-1, cited from earlier work
# Description: Negative control mutatio ...
# [9] = biological target: T4, Bcl-w; settings: natural BH3 peptides, interactions taken from literature; read-out: Binder class, Bcl-w; cited from earlier work
# [10] = biological target: T1, Bfl-1; settings: natural BH3 peptides, interactions taken from literature; read-out: Binder class, Bfl-1; cited from earlier work
# [11] = tested on: prosurvival proteins Bcl-xL, Bcl-w, Bcl-2, Mcl-1 and Bfl-1; assay: Peptide SPOT array binding, receptor not specified; design: species or system human; settings: for Reduction in SPOT array signal when control mutations were introduced: 3aD and 3eL negative controls, receptor not specified; for SPOT array binding specificity among five prosurvival proteins: array IV
# Procedure: as §1
# [12] = c-Myc-tagged receptor 1 µM or 100 nM, anti-c-myc-Cy3 read-out
# [13] = natural BH3 peptides, interactions taken from literature
# [14] = S1 Bim variants, specific binding measured using yeast display, ref Dutta et al. (2010)
Substance,"Binder class (Kd bin) [7, 14]","Kd [8, 14]",further results
EGEKEVEALKKSADWVSDWSSRP [BNIP3L],–,–,"SPOT array signal as % of the Bim BH3 signal, Bfl-1 [1, 12]: 8%; SPOT array signal as % of the Bim BH3 signal, Mcl-1 [2, 12]: less than 3%; SPOT array signal as % of the Bim BH3 signal, Bcl-2 [3]: less than 3%; SPOT array signal as % of the Bim BH3 signal, Bcl-w [4]: less than 3%; SPOT array signal as % of the Bim BH3 signal, Bcl-xL [5]: less than 3%"
IIRNIARHAAQVGASMDRSIPPG [Bid (X)],–,–,"Kd [6]: < 1 µM; Binder class (Kd bin) [7, 13]: > 10 µM; Kd [8, 13]: < 1 µM; Kd [9]: < 1 µM; Kd [10]: > 10 µM"
AAQRYGRELRRMSDEFVDSFKKG [Bad],–,–,"Reduction in SPOT array signal for at least one of the negative controls, Bfl-1 ([1]; 3aD / 3eL mutations): less than 25%; Reduction in SPOT array signal for at least one of the negative controls, Mcl-1 ([2]; 3aD / 3eL mutations): less than 25%"
"APOL6: peptide from APOL6, putative BH3 motif (KEDLKGNIDKLRALADDIDKTHKKFT)",–,–,"SPOT array signal as % of the Bim BH3 signal, Bcl-xL [5]: 17%"
PEIWYAQEIGRYGDEFNAYYARR,< 1 µM,> 10 µM,–
PEIWVAQELKRAGEEFNAYYARR,< 1 µM,> 10 µM,–
PEIWYAQELKRYGDENNAYYARR,< 1 µM,> 10 µM,–
PEIWYAQEIRRAGDEFNAYYARR,< 1 µM,> 10 µM,–
PEIWVAQELSRAGDEFNAYYARR,< 1 µM,> 10 µM,–
PEIWVAQEINRIGEEINAYYARR,> 10 µM,< 1 µM,–
PEIWYAQELQRNGDEFNAYYARR,< 1 µM,> 10 µM,–
PEIWVAQEVDRIGDEVNAYYARR,> 10 µM,< 1 µM,–
PEIWYAQELKRDGDEFNAYYARR,< 1 µM,> 10 µM,–
MTQEVGQLLQDMGDDVYQQYRSL [Mule],–,–,Reduction in SPOT array signal when control mutations were introduced [11]: more than 30%; SPOT array binding specificity among five prosurvival proteins [11]: binding specifically to Mcl-1
PEIWYAQEVKRYGDEYNAYYARR,< 1 µM,> 10 µM,–
PEIWVAQEIERIGNEVNAYYARR,> 10 µM,< 1 µM,–
RLAEVCAVLLRLGDELEMIRPSV [Bok],–,–,Reduction in SPOT array signal when control mutations were introduced [11]: more than 30%; SPOT array binding specificity among five prosurvival proteins [11]: binding specifically to Mcl-1
PEIWYAQEVQRIGDEVNAYYARR,> 10 µM,< 1 µM,–
PEIWYAQEAKRFGDEFNAYYARR,< 1 µM,> 10 µM,–
PEIWVAQELGRDGDEFNAYYARR,< 1 µM,> 10 µM,–
PEIWYAQELGRNGDEYNAYYARR,< 1 µM,> 10 µM,–
PEIWVAQEIGRIGDETNAYYARR,> 10 µM,< 1 µM,–
PEIWYAQELERIGDEVNAYYARR,> 10 µM,< 1 µM,–
PEIWYAQELGRAGDEFNAYYARR,< 1 µM,> 10 µM,–
